Holding throughout (assay): Bliss excess, mean over the matrix (fraction); higher = more synergy
The test system of assay [1] is BxPC-3 (Pancreatic Carcinoma). An outline of the steps:
(§1)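 Cell lines grown in DMEM/F12 or RPMI with 10% FBS were plated in 1536-well plates and held 24 hours at 37°C, 5% CO2 before 72 hours of exposure to two-drug dose matrices, with DMSO typically at 0.2%. CellTiter-Glo 2.0 luminescence gave viability, which was converted to inhibition. Vehicle wells were set to 0 and blank wells to 1. Combination Emax is the second-highest inhibition in the matrix, and Bliss excess is the observed combination effect minus the expected EA + EB − EA·EB, where EA and EB are the single-agent effects.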

For assay [2], the system named is C-33-A (Cervical Carcinoma). An outline of the steps:
as §1

Assay [3] concerns COR-L88 (Small Cell Lung Carcinoma). An outline of the steps: as §1
For assay [4], the system named is CPC-N (Small Cell Lung Carcinoma). An outline of the steps: as §1
In another assay the test system is ES6 (Ewing's Sarcoma). An outline of the steps:
as §1

Assay [5] relates to HPAF-II (Pancreatic Carcinoma). An outline of the steps:
as §1

Another assay relates to IST-MEL1 (Melanoma). An outline of the steps: as §1
For another assay, the system named is KALS-1 (Glioblastoma). The essentials: as §1
Assay [6] deals with LCLC-103H (Non-Small Cell Lung Carcinoma). The essentials:
as §1

For assay [7], the system named is LS-1034 (Colorectal Carcinoma). An outline of the steps: as §1
The test system of assay [8] is MDA-MB-415 (Breast Carcinoma). The essentials: as §1
The test system of assay [9] is MONO-MAC-6 (Acute Myeloid Leukemia). An outline of the steps: as §1
Assay [10] has as its system MS-1 (Small Cell Lung Carcinoma). The essentials:
as §1

The next assay relates to NCI-H226 (Mesothelioma). The essentials: as §1
Assay [11] has as its system NCI-H3118 (Head and Neck Carcinoma). The essentials:
as §1

Assay [12] concerns SCC-4 (Oral Cavity Carcinoma). An outline of the steps:
as §1

Assay [13] has as its system SK-CO-1 (Colorectal Carcinoma). An outline of the steps: as §1
In assay [14] the test system is SKG-IIIa (Cervical Carcinoma). The essentials: as §1
For assay [15], the system named is SNU-423 (Hepatocellular Carcinoma). The essentials: as §1
The subject of assay [16] is T84 (Colorectal Carcinoma). An outline of the steps: as §1

For the molecule `CN(CCO)CC[C@H](CSc1ccccc1)Nc1ccc(S(=O)(=O)NC(=O)c2ccc(N3CCC([C@@H](O)c4ccccc4-c4ccc(Cl)cc4)CC3)cc2)cc1S(=O)(=O)C(F)(F)F` [AZD4320] + CC(=O)O[C@H]1C(=O)[C@@]2(C)[C@H]([C@H](OC(=O)c3ccccc3)[C@]3(O)C[C@H](OC(=O)[C@H](O)[C@@H](NC(=O)c4ccccc4)c4ccccc4)C(C)=C1C3(C)C)[C@]1(OC(C)=O)CO[C@@H]1C[C@@H]2O [Paclitaxel] (first compound max 1 µM, 7x7, partner max 3 µM), the Bliss excess in assay [1] was determined as 0.157; in assay [2] it was 0.0811; in assay [3] it was 0.25; in assay [4] it was 0.0262; in the assay on ES6 (Ewing's Sarcoma), 0.101; in assay [5], 0.0952. In addition, the Bliss excess in the assay on IST-MEL1 (Melanoma) is 0.238; with KALS-1 (Glioblastoma), 0.0468; in assay [6], 0.0719; in assay [7] it was 0.0038; in assay [8] it was -0.0059; in assay [9] it was 0.0285. Moreover, the Bliss excess in assay [10] was 0.0825; with NCI-H226 (Mesothelioma) it was 0.131; in assay [11] it was 0.019; in assay [12], 0.0946; in assay [13], -0.0002; in assay [14] it was 0.133. Besides, the Bliss excess in assay [15] was 0.0819; in assay [16], -0.0222.

As for `C[C@@H](Nc1cc(F)cc(F)c1)c1cc(C(=O)N(C)C)cc2c(=O)cc(N3CCOCC3)oc12` [AZD8186] + C1CN(CCC1(C(=O)N[C@@H](CCO)C2=CC=C(C=C2)Cl)N)C3=NC=NC4=C3C=CN4 [AZD5363] (first compound max 10 µM, 7x7, partner max 10 µM), the Bliss excess was -0.0731 in [1]; -0.0501 in assay [2]; -0.0269 in assay [3]; -0.0478 in [4]; -0.0213 in the assay on ES6 (Ewing's Sarcoma); 0.0403 in assay [5]. Besides, the Bliss excess in the assay on IST-MEL1 (Melanoma) was -0.013; in the assay with KALS-1 (Glioblastoma) it was -0.0397; in assay [6], -0.0345; in assay [7], -0.0177; in [8], -0.0251; in [9], 0.0692. Also, the Bliss excess in assay [10] was -0.0446; in the assay on NCI-H226 (Mesothelioma), -0.0272; in assay [11], -0.022; in assay [12], -0.0276; in assay [13], 0.0309; in [14] it was -0.0225. For the same molecule, the results for the Bliss excess in assay [15] and in assay [16] were -0.0692 and -0.0085, respectively.

As to `Cc1c2c(nn1C)CSCc1cc(n(C)n1)CSc1cc(c3ccccc3c1)OCCCc1c(C(=O)O)n(C)c3c-2c(Cl)ccc13` [AZD5991] + CS(=O)(=O)CCNCc1ccc(-c2ccc3ncnc(Nc4ccc(OCc5cccc(F)c5)c(Cl)c4)c3c2)o1 [Lapatinib] (first compound max 1 µM, 7x7, partner max 10 µM), the Bliss excess in assay [1] is -0.005; in [2] it was 0.0485; in assay [3], -0.0283; in [4], -0.0429; in the assay on ES6 (Ewing's Sarcoma), 0.0331; in assay [5], -0.0209. In addition, the Bliss excess with IST-MEL1 (Melanoma) is -0.005; in the assay with KALS-1 (Glioblastoma), 0.0053; in assay [6] it was -0.025; in assay [7] it was -0.0332; in [8], 0.0015; in assay [9], 0.0012. Further, the Bliss excess in [10] was -0.0273; in the assay with NCI-H226 (Mesothelioma), -0.0183; in [11], 0.0426; in [12] it was 0.0449; in [13] it was 0.0034; in [14] it was 0.0014. For the same molecule, the values for the Bliss excess in [15] and in [16] were -0.0272 and 0.0239, respectively.

Regarding `O=C(c1cc(Cc2n[nH]c(=O)c3ccccc23)ccc1F)N1CCN(C(=O)C2CC2)CC1` [Olaparib] + CN(CC[C@H](CSC1=CC=CC=C1)NC2=C(C=C(C=C2)S(=O)(=O)NC(=O)C3=CC=C(C=C3)N4CCC(CC4)[C@H](C5=CC=CC=C5C6=CC=C(C=C6)Cl)O)S(=O)(=O)C(F)(F)F)CCO [AZD4320] (first compound max 10 µM, 7x7, partner max 1 µM), the Bliss excess in [1] was -0.0424; in assay [2], 0.0014; in [3] it was 0.0077; in assay [4], -0.0247; in the assay with ES6 (Ewing's Sarcoma), -0.0216; in assay [5] it was -0.0399. Also, the Bliss excess was -0.0373 in the assay on IST-MEL1 (Melanoma); -0.0432 in the assay with KALS-1 (Glioblastoma); -0.0339 in assay [6]; -0.0388 in assay [7]; -0.0718 in [8]; 0.0291 in [9]. Besides, the Bliss excess in [10] was 0.0013; in the assay with NCI-H226 (Mesothelioma), -0.047; in [11] it was -0.0182; in [12], -0.0161; in assay [13], 0.0256; in assay [14], -0.0526. Moreover, the Bliss excess in [15] is -0.0182; in [16], -0.0441.

For `N#Cc1cnc(Nc2cc(NC[C@H]3CNCCO3)c(C(F)(F)F)cn2)cn1` [SRA737] + CCc1c2c(nc3ccc(O)cc13)-c1cc3c(c(=O)n1C2)COC(=O)[C@]3(O)CC [SN-38] (first compound max 10 µM, 7x7, partner max 0.3 µM), the Bliss excess in assay [1] is -0.0428; in assay [2], 0.0384; in [3], -0.0179; in assay [4], 0.0694; in the assay on ES6 (Ewing's Sarcoma), -0.0423; in assay [5], -0.0004. The Bliss excess with IST-MEL1 (Melanoma) is -0.0613; in the assay on KALS-1 (Glioblastoma), 0.0836; in assay [6], 0.0442; in assay [7], 0.083; in assay [8], 0.0404; in [9], -0.0374. The Bliss excess was -0.0022 in [10]; -0.0592 with NCI-H226 (Mesothelioma); -0.0085 in [11]; 0.007 in assay [12]; -0.0667 in assay [13]; 0.0311 in assay [14]. The values for the Bliss excess in assay [15] and in assay [16] were 0.0367 and -0.0351, respectively.

`C[C@@H](Nc1cc(F)cc(F)c1)c1cc(C(=O)N(C)C)cc2c(=O)cc(N3CCOCC3)oc12` [AZD8186] + CC(=O)c1c(C)c2cnc(Nc3ccc(N4CCNCC4)cn3)nc2n(C2CCCC2)c1=O [Palbociclib] (first compound max 10 µM, 7x7, partner max 10 µM): the Bliss excess in assay [1] was -0.0127; in assay [2] it was -0.0435; in [3] it was 0.0025; in assay [4], -0.0198; in the assay with ES6 (Ewing's Sarcoma) it was -0.0155; in assay [5] it was 0.0384. Also, the Bliss excess was 0.165 with IST-MEL1 (Melanoma); 0.0114 in the assay with KALS-1 (Glioblastoma); -0.0038 in assay [6]; 0.0015 in assay [7]; -0.0443 in [8]; 0.0726 in assay [9]. Further, the Bliss excess in assay [10] is -0.0484; in the assay on NCI-H226 (Mesothelioma) it was -0.0662; in assay [11], 0.0284; in assay [12], 0.0328; in [13], 0.0163; in assay [14], -0.0661. The Bliss excess in assay [15] is 0.0188; in assay [16], -0.0468.

(Values after the supplement of paper PMC11061612.)
